Test results taken from PMC10687260, “1,3-Diphenylureido hydroxamate as a promising scaffold for generation of potent antimalarial histone deacetylase inhibitors” (Scientific Reports, 2023).
Read-outs that look alike come from different tables or passages of the source.

Tests used:
P. falciparum 3D7 [1] = experiment: Antiplasmodial SYBR Green I proliferation assay, P. falciparum 3D7; assay type: cell-based, Plasmodium falciparum; conditions: read-out: IC50 Pf3D7
From the text: (§1) Antiplasmodial activity against P. falciparum 3D7 (A, C and E) and P. falciparum Dd2 (B, D, F). […] Curves were plotted using non-linear regression based on means from three independent experiments measured in triplicate. Error bars indicate standard deviation, whose values are provided in the respective table.
(§2) Plasmodium falciparum culture and antiplasmodial activity. […] Development, parasitaemia, and morphology of parasites were monitored by light microscopy of thin blood smears stained according to the Romanowsky method (Panótico Rápido staining kit; Laborclin, Pinhais, Paraná, Brazil). […] Fresh 0^+ blood was generously provided by “Hospital Novo Atibaia” (Atibaia, SP, Brazil), and approved by the ethics committee at ICB-USP. The antiplasmodial effect of all compounds was validated against P. falciparum 3D7 strain conducting SYBR Green I (Invitrogen) drug assays as previously reported[30],[46] as a modification of the original procedure. […] Parasite proliferation was measured by the DNA load via fluorescence, using 100 μL of a lysis buffer with SYBR Green I (0.02% v/v) and incubated for 1 h at room temperature in the dark. […] Focal and gain adjustment was performed using the non-treated controls (highest expected fluorescence signal). Data was acquired via the CLARIOstar (V5.20) and MARS software, manually scaled to 0–100%, and plotted using GraphPad Prism (v9.5.2 for Windows, GraphPad Software, La Jolla California USA, www.graphpad.com). Non-treated parasites, the highest solvent concentration on parasites, CQ on parasites, and the highest drug concentration in the medium were used as controls for maximal growth, solvent control, positive biological control, and native drug fluorescence, respectively.

P. falciparum Dd2 = experiment: Antiplasmodial SYBR Green I proliferation assay, P. falciparum Dd2; assay type: cell-based; conditions: Plasmodium falciparum
From the text: as §1, §2

HepG2 cells = experiment: Cytotoxicity in human HepG2 cells (WST-1); assay type: cell-based; conditions: read-out: IC50 HepG2
Protocol: Cytotoxicity in human HepG2 cells.[47] […] Cytotoxic effects of compounds were assessed using the cell proliferation reagent WST-1 (Roche; CELLPRO-RO) in a 96-well plate-based screening assay. HepG2 cells were seeded at 10^4 cells/well (100 μL) in 96-well flat-bottom plates (Sarstedt) the night before the experiment to allow attachment of cells. The next day, two-fold serial dilutions of compounds were prepared in fresh medium in an extra plate, and the medium of cells was replaced by the medium containing the compound dilutions. Non-treated cells (max. proliferation), cells treated with the maximal solvent concentration (DMSO; solvent control), and medium with the maximal compound concentration (native absorbance) used as controls. […] Subsequently, 10 μL WST-1 was added to each well and plates were incubated for additional 4 h under standard conditions. WST-1 is a tetrazolium salt and is metabolised by the mitochondrial succinate-tetrazolium-reductase system of living cells and forms formazan, whose absorbance was measured at 450 nm. Absorbance at 630 nm was assessed to check for protein and precipitation background. Both measurements were acquired via the CLARIOstar (V5.20) and MARS software, manually scaled to 0–100%, and plotted with GraphPad Prism (version 9.5.2 for Windows, GraphPad Software, La Jolla California USA).

PfHDAC1 = target: T1, PfHDAC1 (Plasmodium falciparum, UniProt Q7K6A1); experiment: In vitro PfHDAC1 enzymatic assay; assay type: biochemical
T1 construct: purchased BPS Bioscience (San Diego, CA)
T1 sequence (Q7K6A1 1-449): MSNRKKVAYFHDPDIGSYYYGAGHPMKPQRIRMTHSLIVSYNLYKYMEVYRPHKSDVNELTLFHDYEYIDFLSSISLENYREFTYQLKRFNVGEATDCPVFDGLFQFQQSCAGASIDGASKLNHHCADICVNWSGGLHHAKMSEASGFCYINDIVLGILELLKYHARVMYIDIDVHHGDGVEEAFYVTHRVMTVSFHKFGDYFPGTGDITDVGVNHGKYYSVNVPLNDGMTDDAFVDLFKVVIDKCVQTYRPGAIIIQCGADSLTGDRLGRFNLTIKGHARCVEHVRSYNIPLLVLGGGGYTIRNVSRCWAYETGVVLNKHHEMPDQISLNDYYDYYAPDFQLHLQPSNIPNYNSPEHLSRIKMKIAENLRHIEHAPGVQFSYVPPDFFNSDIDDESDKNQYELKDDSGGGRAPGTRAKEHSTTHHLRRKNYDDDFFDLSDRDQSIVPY
Protocol: In vitro PfHDAC1 enzymatic assay. PfHDAC inhibition assays were performed by BPS Bioscience (San Diego, CA). […] Then, each DMSO solution was directly diluted 10 × fold into the HDAC assay buffer for an intermediate dilution of 10% DMSO in HDAC assay buffer. Then, 5 µL of the intermediate dilution was added to a 50 µL reaction so that the final concentration of DMSO is 1% in all the reactions. […] Fluorescence intensity was measured at an excitation of 360 nm and an emission of 460 nm using a Tecan Infinite M1000 microplate reader. […] The fluorescent intensity data were analyzed using GraphPad Prism (v9.5.2). In the absence of the compound, the fluorescent intensity (Ft) in each data set was defined as 100% activity. In the absence of HDAC, the fluorescent intensity (Fb) in each data set was defined as 0% activity. The percent activity in the presence of each compound was calculated according to the following equation: % activity = (F-Fb)/(Ft-Fb), where “F” is the fluorescent intensity in the presence of the compound.

acetylated histone H3 = experiment: Western blot of acetylated histone H3 in infected erythrocytes; assay type: cell-based, Plasmodium falciparum; conditions: 10 × IC50 for 4 h, trophozoites, vs DMSO
Protocol: (§3) Figure 5 Hydroxamic acid derivatives as potent in vitro PfHDAC1 inhibitors. […]. Enzyme activity was calculated by normalizing the data against the DMSO treated samples and discounting the background. Data are presented as shown above, with mean ± S.D. (n = 2). […]. Comparison of group/concentration against the DMSO control is represented as † for P < 0.0001. […]. Numbers on side of the bands represent the predicted mass (kDa) for each protein. (C,D) Band quantification of histone H3 (C) and H4 (D), respectively, normalizing their acetylated detection against their unmodified version. Differences to this value were analyzed by one way ANOVA using the Dunnett’s post correction, comparing each group against the DMSO control, as rank tests where P values are explicitly depicted.
(§4) Western Blot analysis. […]. Proteins were transferred to PVDF membranes, 5% non-fat dry milk in TBS with Tween 20 (0.1%) was used as blocking agent for 1 h at room temperature. After, incubated with the antibodies overnight at 4 °C (Acetyl Histone H3 Lys9 C5B11 Cell Signaling, Acetyl Histone H4 Lys16 E2B8W Cell Signaling, Histone H3 96C10 Cell Signaling and Histone H4 D2X4V Cell Signaling). For the analysis of protein acetylation levels, the membranes were stripped and re-probed with the corresponding anti-total protein. Mouse monoclonal anti-α-Tubulin (B512 Sigma-Aldrich) was used as loading control. Detection was performed by enhanced chemiluminescence using horseradish peroxidase-conjugated secondary antibodies (Vector Laboratories, Burlingame, CA, USA) and SuperSignal TM West Pico PLUS Chemiluminescent substrate kit (Thermo Scientific). Images were acquired using ChemiDoc TM Imaging System (BioRad Laboratories, CA, USA). Quantitative densitometry was carried out using ImageLab software (Bio-Rad Laboratories, CA, USA). The volume density of the chemiluminescent bands was calculated as an integrated optical density × mm^2 after background correction from each independent experiment (N = 3).

acetylated histone H4 = experiment: Western blot of acetylated histone H4 in infected erythrocytes; assay type: cell-based, Plasmodium falciparum; conditions: 10 × IC50 for 4 h, trophozoites, vs DMSO
Protocol: as §3, §4

CYP1A2 = target: T2, CYP1A2 (Homo sapiens, UniProt P05177); experiment: CYP450 inhibition in human liver microsomes, 1A2; assay type: in vitro ADME; conditions: 10 µM
T2 construct: 10 μM compound was incubated with human liver microsomes and selective marker substrates; from tissue; host or cells: human liver microsomes
T2 sequence (P05177 1-516): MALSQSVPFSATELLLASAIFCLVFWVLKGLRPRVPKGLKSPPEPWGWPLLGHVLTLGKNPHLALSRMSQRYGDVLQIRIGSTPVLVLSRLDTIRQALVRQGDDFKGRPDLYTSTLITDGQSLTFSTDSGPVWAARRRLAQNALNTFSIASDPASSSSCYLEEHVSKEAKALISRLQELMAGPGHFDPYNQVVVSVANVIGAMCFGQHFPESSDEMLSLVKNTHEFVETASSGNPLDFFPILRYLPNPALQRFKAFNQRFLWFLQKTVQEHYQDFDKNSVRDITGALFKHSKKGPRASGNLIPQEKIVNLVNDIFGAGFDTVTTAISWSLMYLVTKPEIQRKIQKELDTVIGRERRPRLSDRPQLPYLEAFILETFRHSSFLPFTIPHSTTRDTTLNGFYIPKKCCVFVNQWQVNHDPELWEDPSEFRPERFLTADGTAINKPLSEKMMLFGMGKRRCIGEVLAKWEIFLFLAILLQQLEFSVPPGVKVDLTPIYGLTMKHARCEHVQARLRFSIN

CYP450 2C9 = target: T3, CYP450 2C9 (Homo sapiens, UniProt P11712); experiment: CYP450 inhibition in human liver microsomes, 2C9; assay type: in vitro ADME; conditions: 10 µM
T3 construct: 10 μM compound was incubated with human liver microsomes and selective marker substrates; from tissue; host or cells: human liver microsomes
T3 sequence (P11712 whole entry): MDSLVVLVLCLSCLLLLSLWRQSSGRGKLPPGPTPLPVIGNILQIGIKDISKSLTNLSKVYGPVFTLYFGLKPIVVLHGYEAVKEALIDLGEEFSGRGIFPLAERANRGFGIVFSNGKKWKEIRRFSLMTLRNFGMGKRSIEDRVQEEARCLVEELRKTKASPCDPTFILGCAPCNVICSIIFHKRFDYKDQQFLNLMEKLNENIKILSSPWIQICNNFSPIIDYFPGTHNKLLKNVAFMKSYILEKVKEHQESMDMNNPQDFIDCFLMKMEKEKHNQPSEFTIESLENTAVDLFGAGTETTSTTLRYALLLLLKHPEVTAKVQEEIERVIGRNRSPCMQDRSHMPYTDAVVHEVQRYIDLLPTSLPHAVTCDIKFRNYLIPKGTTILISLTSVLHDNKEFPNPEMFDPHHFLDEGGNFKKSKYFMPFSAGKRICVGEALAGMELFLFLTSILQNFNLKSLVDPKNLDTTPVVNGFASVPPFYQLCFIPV

CYP450 2D6 = target: T4, CYP450 2D6 (Homo sapiens, UniProt P10635); experiment: CYP450 inhibition in human liver microsomes, 2D6; assay type: in vitro ADME; conditions: 10 µM
T4 construct: 10 μM compound was incubated with human liver microsomes and selective marker substrates; from tissue; host or cells: human liver microsomes
T4 sequence (P10635 whole entry): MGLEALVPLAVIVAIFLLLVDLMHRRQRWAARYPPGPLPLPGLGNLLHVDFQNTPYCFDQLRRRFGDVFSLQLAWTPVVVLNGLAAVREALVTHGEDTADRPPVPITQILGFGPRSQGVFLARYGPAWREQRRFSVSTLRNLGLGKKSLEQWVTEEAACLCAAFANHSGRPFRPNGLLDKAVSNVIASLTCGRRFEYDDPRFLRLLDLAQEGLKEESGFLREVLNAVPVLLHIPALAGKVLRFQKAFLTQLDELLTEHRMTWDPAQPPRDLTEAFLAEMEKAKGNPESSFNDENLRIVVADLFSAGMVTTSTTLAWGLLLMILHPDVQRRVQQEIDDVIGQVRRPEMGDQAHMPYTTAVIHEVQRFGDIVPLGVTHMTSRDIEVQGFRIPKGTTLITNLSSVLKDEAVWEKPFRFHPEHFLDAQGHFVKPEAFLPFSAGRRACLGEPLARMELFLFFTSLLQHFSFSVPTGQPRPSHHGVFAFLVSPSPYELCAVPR

P. falciparum 3D7 [2] = conditions: Fig. 1A; cited from earlier work

Compound CCN(CC)CCCC(C)Nc1ccnc2cc(Cl)ccc12 (centres unmarked) [Chloroquine, reference compound] has an IC50 (P. falciparum 3D7 [1]; Plasmodium falciparum, 3D7, 96 h) of 15 nM, an IC50 (P. falciparum Dd2; DD2, read-out: IC50 P. falciparum Dd2) of 430 nM and an IC50 (HepG2 cells; Homo sapiens, HepG2, 48 h) of over 100000 nM.
Compound CCCCN(Cc1ccc(C(=O)NO)cc1)C(=O)Nc1ccccc1 [Nexturastat A (16), Nexturastat A, reference compound] has an IC50 (P. falciparum 3D7 [1]; 96 h, values in brackets 95% confidence intervals) of 230 nM, an IC50 (P. falciparum 3D7 [1]; Plasmodium falciparum, 3D7, 96 h, 96 h, values in brackets 95% confidence intervals) of 210 nM and an IC50 (P. falciparum Dd2; DD2, multidrug/CQ-resistant strain, read-out: IC50 P. falciparum Dd2) of 290 nM. It also gave an IC50 (HepG2 cells; Homo sapiens, HepG2, 48 h, WST-1) of 21500 nM, an inhibition at 1 µM (PfHDAC1; recombinant PfHDAC1) of 58% and an inhibition at 10 µM (PfHDAC1; 10 µM, recombinant PfHDAC1) of 92%. For the same compound, the “Acetylated-H3 level (normalised to unmodified H3)” value (acetylated histone H3) was “non-statistically significant increase” and the “Acetylated-H4 level (normalised to unmodified H4)” value (acetylated histone H4) was “non-statistically significant increase”.
In the case of C=C[C@H]1C[N@@]2CC[C@H]1C[C@@H]2[C@@H](O)c1ccnc2ccc(OC)cc12 [Quinidine, reference compound], the “CYP450% inhibition @ 10 µM 1A2” value (CYP1A2) is reported as “* (Inhibition < 10%)”, the “CYP450% inhibition @ 10 µM 2C9” value (CYP450 2C9) is reported as “* (Inhibition < 10%)” and the “CYP450% inhibition @ 10 µM 2D6” value (CYP450 2D6) is reported as 89%.
With O=C(CCCCCCC(=O)Nc1ccccc1)NO [Vorinostat (SAHA, 1), Vorinostat, reference compound] the IC50 (HepG2 cells; 48 h, WST-1) was 2870 nM, the IC50 (PfHDAC1) was 100 to 1000 nM and the inhibition at 1 µM (PfHDAC1; recombinant PfHDAC1) was 83%. The “Acetylated-H3 level (normalised to unmodified H3)” value (acetylated histone H3) was “non-statistically significant increase” and the “Acetylated-H4 level (normalised to unmodified H4)” value (acetylated histone H4) was “non-statistically significant increase”.
In the case of O=C(/C=C/c1cccc(S(=O)(=O)Nc2ccccc2)c1)NO [belinostat], the IC50 (P. falciparum 3D7 [2]) is given as 60 nM.
In the case of Nc1ccccc1NC(=O)c1ccc(CNC(=O)OCc2cccnc2)cc1 [entinostat], the IC50 (P. falciparum 3D7 [2]) is given as 7800 nM.
For Cc1[nH]c2ccccc2c1CCNCc1ccc(/C=C/C(=O)NO)cc1 [panobinostat], the IC50 (P. falciparum 3D7 [2]) is given as 10 nM.
In the case of Cn1cc(CNCC2CCN(c3ncc(C(=O)NO)cn3)CC2)c2ccccc21 [quisinostat], the IC50 (P. falciparum 3D7 [2]) is given as 5 nM.
